Like-named read-outs stand apart in the source and are kept apart here.

The source of these data is patent EP1710301A1, “L-gulonolactone dehydrogenase of Mycobacterium tuberculosis” (priority 2005, dated 2006).

Data set [1] has as its target recombinant GST-tagged L-gulono-1,4-lactone dehydrogenase of Mycobacterium tuberculosis (Mycobacterium tuberculosis, UniProt P9WIT3). The following applies: for Enzyme specific activity: substrate 50 mM.
In data set [2] the target is plant L-galactono-1,4-lactone dehydrogenase (Brassica oleracea, UniProt O47881). Particulars: read-out: Km for the L-galactono-1,4-lactone substrate; value reported by Östergaard et al., 1997; cited from earlier work.
For data set [3], the system named is O=C1O[C@H]([C@@H](O)CO)[C@H](O)[C@@H]1O. Put plainly: purified protein, by the assay type.

Sequence of recombinant GST-tagged L-gulono-1,4-lactone dehydrogenase of Mycobacterium tuberculosis (P9WIT3 whole entry): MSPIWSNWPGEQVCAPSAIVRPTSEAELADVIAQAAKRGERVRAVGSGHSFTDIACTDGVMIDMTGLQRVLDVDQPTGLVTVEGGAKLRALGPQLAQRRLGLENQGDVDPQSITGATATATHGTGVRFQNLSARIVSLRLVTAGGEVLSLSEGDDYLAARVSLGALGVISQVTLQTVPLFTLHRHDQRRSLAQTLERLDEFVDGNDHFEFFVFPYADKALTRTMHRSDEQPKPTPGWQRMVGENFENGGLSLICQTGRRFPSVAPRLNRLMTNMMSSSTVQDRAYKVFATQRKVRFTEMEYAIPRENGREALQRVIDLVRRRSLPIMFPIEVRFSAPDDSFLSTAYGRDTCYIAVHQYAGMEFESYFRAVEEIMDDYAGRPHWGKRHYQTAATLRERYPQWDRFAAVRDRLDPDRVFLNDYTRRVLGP
Sequence of plant L-galactono-1,4-lactone dehydrogenase (O47881 92-600): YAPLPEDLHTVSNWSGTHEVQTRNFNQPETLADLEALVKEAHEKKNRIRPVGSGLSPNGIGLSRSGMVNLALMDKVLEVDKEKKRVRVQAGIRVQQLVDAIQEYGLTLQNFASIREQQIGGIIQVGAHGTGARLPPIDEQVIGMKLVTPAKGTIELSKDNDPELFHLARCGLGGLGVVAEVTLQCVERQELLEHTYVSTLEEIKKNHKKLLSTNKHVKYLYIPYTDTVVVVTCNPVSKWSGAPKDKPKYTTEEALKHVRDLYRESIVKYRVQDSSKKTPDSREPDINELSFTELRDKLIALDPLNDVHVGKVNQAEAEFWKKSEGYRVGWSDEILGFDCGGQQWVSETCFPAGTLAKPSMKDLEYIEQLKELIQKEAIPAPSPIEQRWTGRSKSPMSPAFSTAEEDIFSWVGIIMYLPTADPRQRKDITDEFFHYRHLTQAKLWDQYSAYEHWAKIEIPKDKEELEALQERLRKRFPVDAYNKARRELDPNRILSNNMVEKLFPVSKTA

As to `[Ca+2].[Cl-].[Cl-]` [CaCl2], the Relative activity in data set [1] (effector 1 mM) is 91 % of control.

As for `[Cl][Cu][Cl]` [CuCl2], the Relative activity in data set [1] (effector 1 mM) was 0 % of control. Besides, the “effect on the enzyme activity (in words)” value in data set [1] (effectors, EDTA 1 mM) is given as “Inhibition”.

As for `O=C[C@@H](O)[C@H](O)[C@H](O)CO` [D-arabinose], the Enzyme specific activity in data set [1] is 0 mU/mg ofprotein.

In the case of `O=C[C@H](O)[C@@H](O)[C@H](O)[C@H](O)C(=O)O` [D-glucuronic acid], the Enzyme specific activity in data set [1] came to 0 mU/mg ofprotein.

For `O=C[C@H](O)[C@H]1OC(=O)[C@@H](O)[C@H]1O` [D-glucurono-3,6-lactone], the Enzyme specific activity in data set [1] was found to be 0 mU/mg ofprotein.

`O=C[C@H](O)[C@@H](O)[C@H](O)CO` [D-xylose]: the Enzyme specific activity in data set [1] is given as 0 mU/mg ofprotein.

As for `O=C(O)CN(CCN(CC(=O)O)CC(=O)O)CC(=O)O` [EDTA], in data set [1], the Relative activity is listed as 0 % of control and the “effect on the enzyme activity (in words)” value is given as “complete inhibition”.

`Cc1cc2nc3c(=O)[nH]c(=O)nc-3n(C[C@H](O)[C@H](O)[C@H](O)COP(=O)(O)OP(=O)(O)OC[C@H]3O[C@@H](n4cnc5c(N)ncnc54)[C@H](O)[C@@H]3O)c2cc1C` [FAD]: the Relative activity in data set [1] (effector 100 µM) was 94 % of control. Moreover, the “effect on the enzyme activity (in words)” value in data set [1] (effectors, EDTA 1 mM) was “not affected”.

Take `O=C1O[C@H]([C@@H](O)CO)[C@@H](O)[C@@H]1O` [L-galactono-1,4-lactone]: in data set [2], the Km was 3.3 mM. Moreover, the Enzyme specific activity in data set [1] worked out at 0 mU/mg ofprotein. Further, the “activity towards substrate (in words)” value in data set [1] (substrate specificity) is on record as “no activity”.

`O=C1O[C@H]([C@@H](O)CO)[C@H](O)[C@@H]1O` [L-gulono-1,4-lactone]: in data set [1], the Enzyme specific activity came out at 66.7 mU/mg ofprotein.

Consider `[Cl-].[Cl-].[Mg+2]` [MgCl2], for which the Relative activity in data set [1] (effector 1 mM) is on record as 98 % of control.

In the case of `[Cl][Mn][Cl]` [MnCl2], in data set [1] (effector 1 mM), the Relative activity was 79 % of control.

Take `CCN1C(=O)C=CC1=O` [N-ethylmaleimide]: the Relative activity in data set [1] (effector 1 mM) was 0 % of control. For the same compound, the “effect on the enzyme activity (in words)” value in data set [1] (effectors, EDTA 1 mM) is “Inhibition”.

`[Cl-].[Cl-].[Zn+2]` [ZnCl2]: the Relative activity in data set [1] (effector 1 mM) is recorded as 0 % of control. Moreover, in data set [1] (effectors, EDTA 1 mM), the “effect on the enzyme activity (in words)” value is “Inhibition”.

For “recombinant GST-tagged L-gulono-1,4-lactone dehydrogenase of Mycobacterium tuberculosis (Mycobacterium tuberculosis H37Rv)”, in data set [3], the Km amounted to 5 mM mM, the Vmax was 2.44µmol·h^-1mg^-1 µmol·h^-1mg^-1, the kcat is 0.033 s^-1 s^-1 and the kcat/Km was 0.0065 s^-1·mM^-1 s^-1·mM^-1.
